Measured values reported in patent US12390421B2, “Zwitterionic dendritic amphiphiles, zwitterionic dendrimers, zwitterionic telodendrimers, nanocarriers comprising same, and methods of making and using same” (The Research Foundation for the State University of New York, priority 2017, dated 2025).

Tested on: SKOV-3 cancer cell
Assay: Cellular uptake of protein/drug loaded nanocarriers
Format: cell-based
Text: Cellular uptake of protein/drug delivered by zwitterionic nanocarriers. The internalization of protein/drug loaded zwitterionic nanocarrier was studied against SKOV-3 cancer cell. […] Folate targeting group modification facilitates FITC-BSA-loaded NP_CB internalization into cells compared to non-targeted NP_CB. […] The ability of NPs to deliver drug into cells was studied using DOX as model drug by taking advantage of its intricate fluorescence.

Compound | cellular uptake of DOX (SKOV-3, DOX free or loaded, 2 h) | cellular uptake of FITC-BSA (SKOV-3, FITC-BSA free or loaded, 1 h)
COc1cccc2c1C(=O)c1c(O)c3c(c(O)c1C2=O)C[C@@](O)(C(=O)CO)C[C@@H]3O[C@H]1C[C@H](N)[C@H](O)[C@H](C)O1.Cl [free DOX, Doxorubicin hydrochloride] | Strong fluorescence and absolute presence of DOX in nucleus | 
free FITC-BSA: FITC-labeled BSA, model protein |  | no fluorescence signal
